Test results from patent US20240408279A1, “SUPRAMOLECULAR-COVALENT COMPOSITE SLURRY FOR CARTILAGE REPAIR” (Northwestern University, priority 2021, published 2024).

Key:
[1] = system: osteochondral defect in the femoral trochlear groove; test: Osteochondral defect repair, femoral trochlear groove (ICRS macroscopic and modified O'Driscoll histology scoring); assay type: in vivo, sheep; details: Trochlea, TGFβ (+), control = TGFβ-1 in saline; for median Macroscopic Score: 12-point scale; for median Histology Score: 24-point scale
Experimental: (§1) Osteochondral defect filling and regeneration: Skeletally mature female sheep were anesthetized and arthrotomy was performed bilaterally. One 3-4 mm deep and 7 mm diameter osteochondral defect was made in the medial femoral condyle of each stifle and one defect of the same dimensions in the femoral trochlear groove of each stifle. In one stifle, both defects were immediately filled with the PA/HA hybrid with 1 μg/mL TGFβ-1 preloaded as indicated. In the contralateral stifle, saline was immediately added to both defects, which was supplemented with TGFβ-1 at the same concentration as used in the material treated stifle. A calcium chloride solution was then dripped on top of each defect. […] allowed the sheep to stand on the hindlimbs. Samples of each sheep's synovial fluid was antiseptically drawn immediately prior to surgery and one week following surgery. After euthanasia, gross appearance of the defect areas was assessed the ICRS macroscopic scoring system (Ref. 59; incorporated by reference in its entirety) (Table 4). The samples were then fixed in formalin, decalcified the samples and prepared sections which were stained with H&E, with safranin O, or immunohistochemically for collagen II. Sections were scored using a modified O'Driscoll scoring system (Ref. 60; incorporated by reference in its entirety) (Table 5).
(§2) Preparation of material for surgical implant: Heat treated PA solutions prepared at 19 mM were combined with a 10 μg/mL TGFβ-1 solution (R&D Systems) dissolved in a 0.1% BSA, 4 mM HCl buffer or with the buffer alone at a 9:1 ratio. The combination was mixed by pipetting and kept on ice for 1 h. 900 μL of the mixed solution was added to 36 mg of crosslinked HA particles prepared under sterile conditions and allowed to hydrate for 1 h. The hybrid material was packed into a 1 mL syringe with a 19-gauge needle attached and kept on ice until use during surgery.
Animal study design: Animal work was performed at the University of Wisconsin, School of Veterinary Medicine, and all procedures were approved by the Institutional Animal Use and Care Committee. Thirty-six mature female sheep ranging in age from 2-7 (mean=3.7±1.7) years weighing between 60 and 100 (mean=74±8.3) kg were used in this study. […]

[2] = system: osteochondral defect in the medial femoral condyle; test: Osteochondral defect repair, medial femoral condyle (ICRS macroscopic and modified O'Driscoll histology scoring); assay type: in vivo, sheep; details: TGFβ (+); for median Macroscopic Score: 12-point scale; for median Histology Score: 24-point scale
Experimental: as §1, §2
Animal study design: Animal work was performed at the University of Wisconsin, School of Veterinary Medicine, and all procedures were approved by the Institutional Animal Use and Care Committee. Thirty-six mature female sheep ranging in age from 2-7 (mean=3.7±1.7) years weighing between 60 and 100 (mean=74±8.3) kg were used in this study. Animals were divided into 6 groups: (1) 1 pilot sheep sacrificed at 1 week to assess material retention, (2) 6 sheep sacrificed at 4 weeks treated with PA and TGFβ-1, with 1 sheep sacrificed prior to 4 weeks due to patellar luxation and excluded from the analysis, (3) 6 sheep sacrificed at 4 weeks with PA, but without TGFβ-1 treatment, (4) 14 sheep sacrificed at 12 weeks with PA and TGFβ-1 treatment, with 4 sheep sacrificed prior to 12 weeks due to patellar luxation and excluded from analysis, (5) 6 sheep sacrificed at 12 weeks with PA but without TGFβ-1 treatment, with 2 sacrificed prior to 12 weeks due to patellar luxation and excluded from analysis, and (6) two sheep sacrificed at 24 weeks with PA and TGFβ-1 treatment.
Surgical technique: Prior to surgery the sheep were fasted for 24 h, and withheld water for 12 h. Sheep were administered a dose of Xylazine (0.1-0.22 mg/kg IM) in their pen to sedate them for transport to the surgical suite as well as a pre-operative dose of buprenorphine (0.0006-0.01 mg/kg IM) for analgesia. Sheep were then induced with ketamine-midazolam (2-10 mg/kg-0.1-0.3 mg/kg IM) and immediately intubated. Once intubated the sheep were maintained on isoflurane (0-4%) in 100% O2. At this time, a dose of Procaine Penicillin-G (10,000-20,000 IU/kg) IM was administered. Using aseptic techniques, a medial stifle arthrotomy was performed on both limbs of each sheep. In each stifle, one osteochondral defect was made in the medial femoral condyle and a second was made in the femoral trochlear groove using a Stryker EHD variable speed surgical drill and a cannulated drill bit. For the 24-week group, defects were made in the condyle only and not the trochlear groove. […]

[3] = 4 weeks, control = TGFβ-1 in saline
[4] = 12 weeks, control = TGFβ-1 in saline

## Control: in TGFβ (+) groups: contralateral control defects filled with 1 μg/mL TGFβ-1 in saline solution
[1]; 4 weeks
  median Macroscopic Score: 5.7
  median Histology Score: 10.3
[1]; 12 weeks
  median Macroscopic Score: 10.33
  median Histology Score: 11
[2]; [3]
  median Macroscopic Score: 5
  median Histology Score: 9.7
[2]; [4]
  median Macroscopic Score: 7
  median Histology Score: 10
[2]; 24 weeks
  median Macroscopic Score: 9
  median Histology Score: 15.3
